{"source": "patent US20240309003A1", "about": "“HETEROCYCLIC COMPOUNDS AS TRIGGERING RECEPTOR EXPRESSED ON MYELOID CELLS 2 AGONISTS AND METHODS OF USE” (Vigil Neuroscience, Inc., priority 2021, published 2024)"}
{"target": "T1, human TREM2 (Homo sapiens, UniProt Q9NZC2)", "T1 construct": "expressed in transfected cells; host or cells: HEK293T", "T1 sequence (Q9NZC2 19-230)": "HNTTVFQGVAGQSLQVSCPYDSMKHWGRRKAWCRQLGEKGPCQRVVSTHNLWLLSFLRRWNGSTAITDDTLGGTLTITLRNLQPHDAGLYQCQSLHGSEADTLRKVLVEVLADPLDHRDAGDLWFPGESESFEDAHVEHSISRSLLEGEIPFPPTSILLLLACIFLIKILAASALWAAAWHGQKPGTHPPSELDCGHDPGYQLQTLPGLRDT", "T1 sequence (O43914 22-113 partner)": "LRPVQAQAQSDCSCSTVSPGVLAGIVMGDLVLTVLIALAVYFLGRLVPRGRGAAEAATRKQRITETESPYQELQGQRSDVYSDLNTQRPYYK", "experiment": "TREM2 agonist potency by cellular phosphorylation of Syk (AlphaLisa) in HEK293T-hTREM2 cells", "type": "cell-based", "conditions": "HEK293 cells expressing human TREM2 and DAP12, Table D", "experimental": "(§1) In Vitro Measurement of Triggering Receptor Expressed on Myeloid Cells 2 Activity Using Cellular Phosphorylation of Spleen Tyrosine Kinase (“Syk”) Assays\n(§2) Measurement of TREM2 agonist potency was done using a HEK cell line expressing human TREM2 and DAP12 (HEK293T-hTREM2 cells). Binding of small molecules to, and activation of, TREM2 increases the phosphorylation of Syk. The resultant levels of Syk phosphorylation are measured using a commercial AlphaLisa reagent kit. To perform the assay, HEK-hTREM2 cells were plated at 14,000 cells per well in a 384 well plate, in 25 μL of complete growth media and incubated at 37° C., 5% CO2 for 20-24 hours.\n(§3) Prior to the assay, test compounds were diluted in the 384 well plates in assay buffer and allowed to equilibrate for 30 minutes. Growth media was removed from cell plates by inversion on blotting paper, and 25 μL of test articles in assay buffer was added to cells. Cells were incubated for 45 minutes at room temperature. After 45 minutes, assay buffer was removed and 10 μL of lysis buffer was added. Plates were shaken for 20 minutes at 350 RPM at room temperature. After complete lysis, AlphaLisa reagents were added to the lysate, and fluourescence intensity was measured using a Perkin Elmer Envision plate reader. Intensities were used to generate a standard curve, and % activation was calculated. Curve fitting was performed using Prism v9 software, log(agonist) vs response-variable slope (four parameters), and EC50s were calculated from the curve fit.\n(§4) This assay may be used to test any of the compounds described herein to assess and characterize a compound's ability to act as an agonist of TREM2.", "units": {"EC50": "nM"}}
{"smiles": "Cc1cc([C@H]2C[C@@H](c3cc(-c4ccc(Cl)c(F)c4F)c4cc(C)c(C)nc4n3)CCO2)ccn1", "note": "[Example 186, 5-(4-chloro-2,3-difluorophenyl)-2,3-dimethyl-7-((2R,4S)-2-(2-methylpyridin-4-yl)tetrahydro-2H-pyran-4-yl)-1,8-naphthyridine]", "EC50": "500 to 3000"}
{"smiles": "Cc1nc2cc([C@H]3CCO[C@@H](c4cnn(C5CC5)c4)C3)nc(-c3ccc(C(F)(F)F)cc3F)c2nc1C", "note": "[Example 211, 7-((2R,4S)-2-(1-cyclopropyl-1H-pyrazol-4-yl)tetrahydro-2H-pyran-4-yl)-5-(2-fluoro-4-(trifluoromethyl)phenyl)-2,3-dimethylpyrido[3,4-b]pyrazine]", "EC50": "< 50"}
{"smiles": "[2H]C1([2H])C[C@H](c2nc(-c3ccc(F)cc3F)c3nc(C)c(C)nc3n2)C[C@H](c2cnn(C3CC3)c2)O1", "note": "[Example 171, 2-((2R,4S)-2-(1-cyclopropyl-1H-pyrazol-4-yl)tetrahydro-2H-pyran-4-yl-6,6-d2)-4-(2,4-difluorophenyl)-6,7-dimethylpteridine]", "EC50": "50 to 500"}
{"smiles": "Cc1nc2nc([C@@H]3CCO[C@H](c4cccc(=O)n4C)C3)nc(-c3ccc(F)cc3F)c2nc1C", "note": "[Example 202]", "EC50": "500 to 3000"}
{"smiles": "Cc1nc2nc(N3CCN(C)C(c4cnn(C5CC5)c4)C3)nc(-c3ccc(Cl)cc3F)c2nc1C", "note": "(centres unmarked) [Example 205, 4-(4-chloro-2-fluorophenyl)-2-(3-(1-cyclopropyl-1H-pyrazol-4-yl)-4-methylpiperazin-1-yl)-6,7-dimethylpteridine]", "EC50": "< 50"}
{"smiles": "Cc1nc2nc([C@@H]3C[C@@H](C)O[C@@H](c4cnn(C5CC5)c4)C3)nc(-c3cc(F)c(F)cc3F)c2nc1C", "note": "[Example 158, 2-((2R,4R,6R)-2-(1-cyclopropyl-1H-pyrazol-4-yl)-6-methyltetrahydro-2H-pyran-4-yl)-6,7-dimethyl-4-(2,4,5-trifluorophenyl)pteridine]", "EC50": "50 to 500"}
{"smiles": "[2H]C1([2H])C[C@H](c2nc(-c3ccc(Cl)cc3F)c3nc(C)c(C)nc3n2)C[C@H](c2cnn(C3CC3)c2)O1", "note": "[Example 188, 4-(4-chloro-2-fluorophenyl)-2-((2R,4S)-2-(1-cyclopropyl-1H-pyrazol-4-yl)tetrahydro-2H-pyran-4-yl-6,6-d2)-6,7-dimethylpteridine]", "EC50": "< 50"}
{"smiles": "Cc1nc2nc(C3CCOC(c4nc(C5CC5)n[nH]4)C3)nc(-c3ccc(F)cc3F)c2nc1C", "note": "(centres unmarked) [Example 169]", "EC50": "500 to 3000"}
{"smiles": "Cc1cc([C@@H]2C[C@H](c3cc4nc(C)c(C)cc4c(-c4ccc(Cl)cc4F)n3)CCO2)ccn1", "note": "[Example 225, 5-(4-chloro-2-fluorophenyl)-2,3-dimethyl-7-((2S,4R)-2-(2-methylpyridin-4-yl)tetrahydro-2H-pyran-4-yl)-1,6-naphthyridine]", "EC50": "500 to 3000"}
{"smiles": "Cc1nc2nc(C3C[C@@H](C)O[C@@H](c4cn[nH]c4)C3)nc(-c3ccc(F)cc3F)c2nc1C", "note": "(some centres unmarked) [Example 168]", "EC50": "50 to 500"}
{"smiles": "Cc1ccc2c(C34CC(C(F)(F)F)(C3)C4)nc([C@H]3C[C@@H](C)O[C@@H](c4cnn(C5CC5)c4)C3)nc2n1", "note": "[Example 220, 2-((2R,4S,6R)-2-(1-cyclopropyl-1H-pyrazol-4-yl)-6-methyltetrahydro-2H-pyran-4-yl)-7-methyl-4-(3-(trifluoromethyl)bicyclo[1.1.1]pentan-1-yl)pyrido[2,3-d]pyrimidine]", "EC50": "500 to 3000"}
{"smiles": "Cc1cc([C@H]2C[C@@H](c3nc(-c4ccc(Cl)c(F)c4F)c4ncc(C)nc4n3)CCO2)ccn1", "note": "[Example 130, 4-(4-chloro-2,3-difluorophenyl)-7-methyl-2-((2R,4S)-2-(2-methylpyridin-4-yl)tetrahydro-2H-pyran-4-yl)pteridine]", "EC50": "< 50"}
{"smiles": "Cc1nc2nc(N3CCO[C@H](c4cc[nH]c(=O)c4)C3)nc(-c3ccc(C(F)(F)F)nc3)c2nc1C", "note": "[Example 196, (R)-4-(4-(6,7-dimethyl-4-(6-(trifluoromethyl)pyridin-3-yl)pteridin-2-yl)morpholin-2-yl)pyridin-2(1H)-one]", "EC50": "50 to 500"}
{"smiles": "Cc1nc2nc([C@H]3CCO[C@@H](c4cnn(C5CC5)c4)C3)nc(C3CCC(F)(F)CC3)c2nc1C", "note": "[Example 180, 2-((2R,4S)-2-(1-cyclopropyl-1H-pyrazol-4-yl)tetrahydro-2H-pyran-4-yl)-4-(4,4-difluorocyclohexyl)-6,7-dimethylpteridine]", "EC50": "< 50"}
{"smiles": "Cc1ccc(-c2nc(N3C[C@@H](C)O[C@@H](c4cnn(C5CC5)c4)C3)nc3nc(C)c(C)nc23)o1", "note": "[Example 243, (2S,6R)-2-(1-cyclopropyl-1H-pyrazol-4-yl)-4-(6,7-dimethyl-4-(5-methylfuran-2-yl)pteridin-2-yl)-6-methylmorpholine]", "EC50": "50 to 500"}
{"smiles": "Cc1nc2nc(N3CCOC(c4cc[nH]c(=O)c4)C3)nc(-c3ccc(C(F)(F)F)nc3)c2nc1C", "note": "(centres unmarked) [Example 194, 4-(4-(6,7-dimethyl-4-(6-(trifluoromethyl)pyridin-3-yl)pteridin-2-yl)morpholin-2-yl)pyridin-2(1H)-one]", "EC50": "< 50"}
{"smiles": "Cc1cc2nc([C@H]3CCO[C@@H](c4cnn(C5CC5)c4)C3)nc(-c3ccc(Cl)cc3F)c2nc1C", "note": "[Example 222, 4-(4-chloro-2-fluorophenyl)-2-((2R,4S)-2-(1-cyclopropyl-1H-pyrazol-4-yl)tetrahydro-2H-pyran-4-yl)-6,7-dimethylpyrido[3,2-d]pyrimidine]", "EC50": "500 to 3000"}
{"smiles": "[2H]C([2H])([2H])c1ccc(-c2nc([C@@H]3CCO[C@H](c4cnn(C([2H])([2H])[2H])c4)C3)nc3nc(C([2H])([2H])[2H])c(C([2H])([2H])[2H])nc23)cc1", "note": "[Example 174, 6,7-bis(methyl-d3)-2-((2S,4R)-2-(1-(methyl-d3)-1H-pyrazol-4-yl)tetrahydro-2H-pyran-4-yl)-4-(4-(methyl-d3)phenyl)pteridine]", "EC50": "3000 to 100000"}
{"smiles": "CC(=O)OCc1nc2c(-c3ccc(F)cc3F)nc([C@@H]3CCO[C@@H](c4cnn(C5CC5)c4)C3)cc2nc1C", "note": "[Example 246, (7-((2R,4R)-2-(1-cyclopropyl-1H-pyrazol-4-yl)tetrahydro-2H-pyran-4-yl)-5-(2,4-difluorophenyl)-2-methylpyrido[3,4-b]pyrazin-3-yl)methylacetate]", "EC50": "3000 to 100000"}
{"smiles": "COc1ccc([C@@H]2C[C@H](c3nc(-c4ccc(F)cc4F)c4nc(C)c(C)nc4n3)CCO2)cn1", "note": "[Example 162, 4-(2,4-difluorophenyl)-2-((2S,4R)-2-(6-methoxypyridin-3-yl)tetrahydro-2H-pyran-4-yl)-6,7-dimethylpteridine]", "EC50": "50 to 500"}
{"smiles": "Cc1nc2nc([C@H]3C[C@@H](C)O[C@@H](c4cnn(C5CC5)c4)C3)nc(-c3ccc(C(F)(F)F)cc3)c2nc1C", "note": "[Example 159, 2-((2R,4S,6R)-2-(1-cyclopropyl-1H-pyrazol-4-yl)-6-methyltetrahydro-2H-pyran-4-yl)-6,7-dimethyl-4-(4-(trifluoromethyl)phenyl) pteridine]", "EC50": "< 50"}
{"smiles": "Cc1nc2nc([C@H]3CCO[C@@H](c4ccc(=O)n(C)c4)C3)nc(-c3ccc(F)cc3F)c2nc1C", "note": "[Example 201]", "EC50": "500 to 3000"}
{"smiles": "Cc1cc2c(-c3ccc(Cl)cc3F)cc([C@H]3CCO[C@@H](c4cnn(C5CC5)c4)C3)nc2nc1C", "note": "[Example 233, 5-(4-chloro-2-fluoro-phenyl)-7-[(2R,4S)-2-(1-cyclopropylpyrazol-4-yl)tetrahydropyran-4-yl]-2,3-dimethyl-1,8-naphthyridine]", "EC50": "< 50"}
{"target": "T1, human TREM2", "experiment": "TREM2 agonist potency by cellular phosphorylation of Syk (AlphaLisa) in HEK293T-hTREM2 cells", "type": "cell-based", "conditions": "HEK293 cells expressing human TREM2 and DAP12, Table D-2", "experimental": "as §1, §2, §3, §4", "units": {"EC50": "nM"}}
{"smiles": "Cc1cc([C@@H]2CN(c3nc(-c4ccc(Cl)cc4F)c4nc(C)c(C)nc4n3)CCO2)no1", "note": "[Example I-1270, 4-[4-(4-chloro-2-fluoro-phenyl)-6,7-dimethyl-pteridin-2-yl]-2-(5-methylisoxazol-3-yl)morpholine]", "EC50": "50 to 500"}
{"smiles": "Cc1nc2nc([C@H]3CCO[C@@H](c4cnn(C5CC5)c4)C3)nc(-c3ccc(OC(F)(F)F)cc3F)c2nc1C", "note": "[Example I-1313, 2-((2R,4S)-2-(1-cyclopropyl-1H-pyrazol-4-yl)tetrahydro-2H-pyran-4-yl)-4-(2-fluoro-4-(trifluoromethoxy)phenyl)-6,7-dimethylpteridine]", "EC50": "50 to 500"}
{"smiles": "Cc1nc2nc(N3C[C@H](CO)O[C@H](c4cnn(C5CC5)c4)C3)nc(-c3ccc(F)cc3F)c2nc1C", "note": "[Example I-1334, [(2R,6R)-6-(1-cyclopropylpyrazol-4-yl)-4-[4-(2,4-difluorophenyl)-6,7-dimethyl-pteridin-2-yl]morpholin-2-yl]methanol]", "EC50": "3000 to 100000"}
{"smiles": "Cc1nc2c(-c3ccc(C(F)(F)F)cc3F)cn([C@H]3CCO[C@@H](c4cnn(C5CC5)c4)C3)c(=O)c2nc1C", "note": "[Example I-1567, 6-[(2R,4S)-2-(1-cyclopropyl-1H-pyrazol-4-yl)tetrahydro-2H-pyran-4-yl]-8-[2-fluoro-4-(trifluoromethyl)phenyl]-2,3-dimethylpyrido[3,4-b]pyrazin-5(6H)-one]", "EC50": "3000 to 100000"}
{"smiles": "Cc1nc2nc(N3C[C@@H](c4cnn(C5CC5)c4)O[C@@H](C(F)F)C3)nc(-c3ccc(F)cc3F)c2nc1C", "note": "(single isomer, unassigned) [Example I-1524]", "EC50": "< 50"}
{"smiles": "Cc1cc([C@@H]2CN(c3nc(-c4ccc(Cl)cc4F)c4nc(C)c(C)nc4n3)CCO2)on1", "note": "(stereo in doubt) [Example I-1241, 4-[4-(4-chloro-2-fluoro-phenyl)-6,7-dimethyl-pteridin-2-yl]-2-(3-methylisoxazol-5-yl)morpholine]", "EC50": "< 50"}
